Laboratory results reported in patent US20260226049A1, “NITROGEN-CONTAINING HETEROCYCLIC COMPOUND, PREPARATION METHOD THEREFOR, AND USE THEREOF” (BIVISION PHARMACEUTICALS, INC, priority 2023, published 2026).
Read-outs that look alike come from different tables or passages of the source.

What was measured:
[1] = biological target: T1, FAP protein (Homo sapiens, UniProt Q12884); assay: Biacore test of ligand binding to FAP protein; conditions: FAP protein on SA chip, 15° C., 1:1 binding model
T1 construct: purchased Sinobiological
T1 sequence (Q12884 1-760): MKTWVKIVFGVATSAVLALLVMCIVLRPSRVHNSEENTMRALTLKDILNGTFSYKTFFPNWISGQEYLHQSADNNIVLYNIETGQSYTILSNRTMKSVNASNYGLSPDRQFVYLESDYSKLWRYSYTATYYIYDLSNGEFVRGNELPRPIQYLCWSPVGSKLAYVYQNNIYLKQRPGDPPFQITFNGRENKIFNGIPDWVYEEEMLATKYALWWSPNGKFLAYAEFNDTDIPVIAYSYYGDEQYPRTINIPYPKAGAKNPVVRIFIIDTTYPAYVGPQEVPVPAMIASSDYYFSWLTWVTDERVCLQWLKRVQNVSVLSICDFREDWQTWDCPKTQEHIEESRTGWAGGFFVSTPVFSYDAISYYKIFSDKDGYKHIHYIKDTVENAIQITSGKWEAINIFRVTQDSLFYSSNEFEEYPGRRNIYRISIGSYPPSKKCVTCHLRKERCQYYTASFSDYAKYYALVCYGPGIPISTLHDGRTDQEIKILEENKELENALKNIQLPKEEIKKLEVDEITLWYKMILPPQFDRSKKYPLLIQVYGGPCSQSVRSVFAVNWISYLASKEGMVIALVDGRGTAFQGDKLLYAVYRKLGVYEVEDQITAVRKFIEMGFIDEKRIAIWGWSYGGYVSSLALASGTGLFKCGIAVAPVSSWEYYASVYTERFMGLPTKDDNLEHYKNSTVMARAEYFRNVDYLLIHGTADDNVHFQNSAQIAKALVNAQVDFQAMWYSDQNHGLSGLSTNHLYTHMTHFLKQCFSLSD
Method: The Biacore 8K (Cytiva) instrument was used to detect ligand binding of the FAP protein (Sinobiological). The FAP protein was captured on the SA chip. Before ligand immobilization (flow paths 1 and 2, flow rate of 10 μL/min), the FAP protein (10 μg/mL, flow rate of 5 μL/min, injection time of 600 s) was immobilized on flow path 2 using running buffer, and the sensor surface was conditioned with three consecutive injections of 1 M NaCl in 50 mM NaOH. After each ligand injection, additional washing was carried out with isopropanol in 1 M NaCl and 50 mM NaOH (flow paths 1 and 2, flow rate of 10 μL/min, injection time of 60 s).
The test compounds were dissolved in 100% dimethyl sulfoxide and diluted to 10 mM, then further diluted in the assay buffer (PBS, pH 7.4, 1 mM TCEP ([…]), 0.05% P20, 2% dimethyl sulfoxide) to appropriate maximum concentrations. The analyte was run under the following conditions: analysis temperature=15° C., analysis step=all set to LMW kinetics; cycle type=single cycle (90 s contact time, 1800 s dissociation time, 30 μL/min flow rate, flow channels 1, 2); flow channel detection=2-1). Data evaluation was performed using Biacore Insight Evaluation Software, and the data were fitted to a 1:1 binding model.
The Biacore results are shown in Table 1: pKD=−Log KD, where KD is the binding affinity of the compound to the FAP protein as measured by Biacore. The binding affinity is expressed by KD (M)=Kd(1/s)/Ka(1/Ms). Where A: pKD>8, B: 7<pKD<8, C: 6<pKD<7, D: pKD<6.

[2] = tested on: HT1080 8 #cells; assay: Cell competitive binding assay against ^177Lu-radiolabeled FAPi-46
Method: (1) HT1080 8 #cells in the logarithmic growth phase were prepared into a cell suspension, and the cell density was adjusted to 1×10^4/mL. 1 mL of the suspension was seeded into a 24-well cell culture plate. The plate was incubated overnight in a 37° C. incubator.
(2) The cell culture medium was aspirated, and the cells were washed once with PBS, followed by the addition of 975 μL of additive-free medium.
(3) To each well, 25 µL of ^177Lu-radiolabeled FAPi-46 (Nanchang Tanzhen Biotechnology Co., Ltd., CAS: 2374782-04-2) at a fixed concentration (final concentration in culture medium: 1.35 μCi/mL) and varying concentrations (final concentrations in culture medium: 1000 ng/mL, 100 ng/ml, 10 ng/ml, 1 ng/mL, 0.1 ng/ml, 0.01 ng/mL, 0.001 ng/mL, 0 ng/ml) of unlabeled test compounds JHH8, JHDB8, and JHH9 were added.
(4) The mixture was incubated on ice for 2 hours.
(5) The cells were washed three times with ice-cold PBS.
(6) The cells were lysed with 0.5 mL of 1 M sodium hydroxide, washed twice with 0.5 mL of PBS, and the sodium hydroxide solution (0.5 mL) and PBS solutions (0.5 mL×2) were collected for uptake counting.
The control compound was OncoFAP-DOTAGA (structural formula: […]
The cell competitive binding of compounds JHH5, JHH4, JHH10, JHH8, H4b, H5b, and H8b was tested in the same batch using the above method, and the experimental results are shown in Table 3 and FIG. 3.

[3] = tested on: HT1080 2 #FAP cells; assay: Tissue distribution in FAP-positive tumor-bearing mice; format: in vivo, mice (Balb/c Nude); conditions: 24 hours after tail vein injection, approximately 3.7 MBq/mouse
Source text: Tissue distribution in FAP-positive tumor-bearing mice: 2×10^6 HT1080 2 #FAP cells (in 50% Matrigel, Corning) were subcutaneously inoculated into the right shoulder of mice (Balb/c Nude, Vital River) aged approximately 6-9 weeks. When the tumors grew to approximately 150-350 mm^3 in size, the following “7. General ^177Lu Labeling Experimental Method” was used to label JHH3, JHH8, JHH9, JHDB7, and JHDB8 compounds. Subsequently, ^177Lu-JHH3, ^177Lu-JHH8, ^177Lu-JHH9, ^177Lu-JHDB7, ^177Lu-JHDB8, and ^177Lu-OncoFAP DOTAGA radiolabeled compounds were injected into the mice via the tail vein (approximately 3.7 MBq/mouse). 24 hours after administration, the animals were euthanized by CO2 inhalation, and blood and organs (liver, kidney, muscle, tumor) were collected after euthanasia.
After organ collection, the samples were rinsed twice with deionized water and dried, then placed in pre-weighed tubes and weighed again to calculate the sample weight. The samples were measured on the day of collection. All blood samples and tissue samples were measured for radioactive counts using a gamma counter.

[4] = EC50 (ng/mL) converted with molecular weight, read-out: EC50
[5] = competition with ^177Lu-FAPi-46, on ice 2 hours

| EC50 [2, 4] | EC50 [2, 5] | uptake in other organs compared to the reference compound [3] | uptake in tumor tissues compared to the reference compound [3] | SMILES | Kd [1] |
| --- | --- | --- | --- | --- | --- |
| 14.5 nM | 13.77 ng/mL |  |  | N#C[C@@H]1CC(F)(F)CC1C(=O)CNC(=O)c1ccc2c(c1)CCCN2C(=O)CCC(=O)NCCNC(=O)CCC(C(=O)O)N1CCN(CC(=O)O)CCN(CC(=O)O)CCN(CC(=O)O)CC1 (stereo partly drawn) [JHH8] | < 10 nM |
| 1.3 nM | 1.231 ng/mL |  |  | N#C[C@@H]1CC(F)(F)CN1C(=O)CNC(=O)c1cccc2c1CN(C(=O)CCC(=O)NCCNC(=O)CCC(C(=O)O)N1CCN(CC(=O)O)CCN(CC(=O)O)CCN(CC(=O)O)CC1)CC2 (stereo partly drawn) [JHH4] |  |

The next lines start with the compound.

| SMILES | EC50 [2, 4] | EC50 [2, 5] | uptake in other organs compared to the reference compound [3] | uptake in tumor tissues compared to the reference compound [3] | Kd [1] |
| --- | --- | --- | --- | --- | --- |
| N#C[C@@H]1CC(F)(F)CN1C(=O)CNC(=O)c1cccc2c1CCCN2C(=O)CCC(=O)NCCNC(=O)CCC(C(=O)O)N1CCN(CC(=O)O)CCN(CC(=O)O)CCN(CC(=O)O)CC1 (stereo partly drawn) [JHH10] | 3.56 nM | 3.38 ng/mL |  |  | < 10 nM |
| N#C[C@@H]1CC(F)(F)CN1C(=O)CNC(=O)c1ccc2c(c1)CCCN2 [Compound H8b] | 9.24 nM | 3.219 ng/mL |  |  |  |
| N#C[C@@H]1CC(F)(F)CN1C(=O)CNC(=O)c1cccc2c1CCNC2 [Compound H5b] | 452 nM | 157.5 ng/mL |  |  |  |
| N#C[C@@H]1CC(F)(F)CN1C(=O)CNC(=O)c1cc2c(s1)CCN(C(=O)CCC(=O)NCCNC(=O)CCC(C(=O)O)N1CCN(CC(=O)O)CCN(CC(=O)O)CCN(CC(=O)O)CC1)C2 (stereo partly drawn) [^177Lu-JHH3, metal not drawn] |  |  | lower uptake in other organs | higher uptake in tumor tissues |  |
| N#C[C@@H]1CC(F)(F)CN1C(=O)CNC(=O)c1ccnc2c(NC(=O)CCC(=O)NCCNC(=O)CCC(C(=O)O)N3CCN(CC(=O)O)CCN(CC(=O)O)CCN(CC(=O)O)CC3)cccc12 (stereo partly drawn) [OncoFAP-DOTAGA, reference compound] | 2.81 nM | 2.699 ng/mL |  |  |  |
| N#C[C@@H]1CC(F)(F)CN1C(=O)CNC(=O)c1cccc2c1CNCC2 [Compound H4b] | 34.2 nM | 11.89 ng/mL |  |  |  |
